The record followed here is paper PMC5578373, “Inhibitory Kappa B Kinase α (IKKα) Inhibitors That Recapitulate Their Selectivity in Cells against Isoform-Related Biomarkers” (Journal of Medicinal Chemistry, 2017).

Where two headings read alike, the source gives them in different places. Where only a bound is given, the exact number is not on record here.

The target of one experiment is T1, IKKα (Homo sapiens, UniProt O15111).
T1 construct: purchased Millipore, Dundee, UK
T1 sequence (O15111 1-745): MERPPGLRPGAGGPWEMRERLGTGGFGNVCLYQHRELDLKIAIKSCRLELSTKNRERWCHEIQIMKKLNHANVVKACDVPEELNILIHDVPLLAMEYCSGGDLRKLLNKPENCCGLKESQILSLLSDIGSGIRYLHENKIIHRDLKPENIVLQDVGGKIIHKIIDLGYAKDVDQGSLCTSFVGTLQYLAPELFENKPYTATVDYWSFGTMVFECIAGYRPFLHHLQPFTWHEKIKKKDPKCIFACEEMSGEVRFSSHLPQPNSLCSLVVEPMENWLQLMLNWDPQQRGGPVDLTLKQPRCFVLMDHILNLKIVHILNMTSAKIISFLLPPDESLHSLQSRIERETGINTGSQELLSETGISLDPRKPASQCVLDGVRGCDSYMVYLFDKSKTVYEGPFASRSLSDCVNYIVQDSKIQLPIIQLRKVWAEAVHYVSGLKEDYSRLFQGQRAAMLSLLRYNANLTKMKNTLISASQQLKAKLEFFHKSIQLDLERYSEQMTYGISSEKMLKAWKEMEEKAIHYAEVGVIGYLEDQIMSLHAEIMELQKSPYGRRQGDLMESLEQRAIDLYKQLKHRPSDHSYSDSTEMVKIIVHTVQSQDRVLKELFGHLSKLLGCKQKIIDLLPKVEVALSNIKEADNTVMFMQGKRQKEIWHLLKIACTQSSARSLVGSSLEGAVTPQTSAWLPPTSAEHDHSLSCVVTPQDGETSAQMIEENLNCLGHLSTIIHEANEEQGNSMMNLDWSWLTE
The experiment in a line: DELFIA kinase assay, IKKα. The class given is biochemical. To be noted: for Ki: apparent Ki (Cheng–Prusoff), 40 μM ATP, three independent experiments, read-out: IKKα (Ki ± SEM μM); for IKKα inhibitory activity: SAR discussion.

In a further experiment the target is T2, IKKβ (Homo sapiens, UniProt O14920).
T2 construct: purchased Millipore, Dundee, UK
T2 sequence (O14920 1-756): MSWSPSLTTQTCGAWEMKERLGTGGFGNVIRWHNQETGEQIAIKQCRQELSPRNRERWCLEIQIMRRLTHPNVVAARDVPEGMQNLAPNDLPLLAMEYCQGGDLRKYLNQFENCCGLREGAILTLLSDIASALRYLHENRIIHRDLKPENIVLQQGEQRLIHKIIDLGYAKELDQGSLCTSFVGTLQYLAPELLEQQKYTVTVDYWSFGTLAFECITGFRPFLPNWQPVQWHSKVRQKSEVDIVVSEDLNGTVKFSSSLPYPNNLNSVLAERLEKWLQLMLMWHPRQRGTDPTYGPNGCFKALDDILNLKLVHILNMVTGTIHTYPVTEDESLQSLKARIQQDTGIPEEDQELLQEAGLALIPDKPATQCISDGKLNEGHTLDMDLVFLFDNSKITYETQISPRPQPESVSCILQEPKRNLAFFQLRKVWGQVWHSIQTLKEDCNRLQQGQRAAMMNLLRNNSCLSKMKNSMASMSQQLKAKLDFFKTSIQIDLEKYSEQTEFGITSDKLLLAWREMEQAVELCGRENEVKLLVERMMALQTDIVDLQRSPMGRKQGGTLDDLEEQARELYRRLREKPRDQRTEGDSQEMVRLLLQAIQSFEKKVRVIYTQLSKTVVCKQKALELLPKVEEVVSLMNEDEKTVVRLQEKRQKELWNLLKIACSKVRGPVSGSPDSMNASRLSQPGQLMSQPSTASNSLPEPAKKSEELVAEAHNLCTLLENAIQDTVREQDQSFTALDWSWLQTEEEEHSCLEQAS
The experiment in a line: DELFIA kinase assay, IKKβ. Format: biochemical. An excerpt: To identify hits that could be developed to exploit the differences between the two isoforms, we screened our in-house compound library compiled of fragments designed to target the common hinge-binding motif found in protein kinases. Using a DELFIA kinase assay kit with minor modifications[29] to measure IKKα and IKKβ inhibitory activity, we identified 2-amino-4-chloro-5-cyanopyrrolo[2,3-d]pyrimidine 4 as our primary hit (Table 1). On the basis of the assumption that the 2-aminopyrrolo[2,3-d]pyrimidine core of compound 4 was binding at the hinge of IKKα, we varied substitution at the 4-position widely. Differences in bulk and polar functionality were incorporated to exploit the greater flexibility in the IKKα ATP binding site and the position of the Asn28 side chain at the back of the pocket.
IKKα and IKKβ inhibitory activity was determined using a dissociation enhanced ligand fluorescent immunoassay (DELFIA) based on the protocol of HTScan IKKβ kinase assay (Cell Signaling Technology, USA).
Recombinant IKKα or IKKβ, 37 nM (Millipore, Dundee, UK), was incubated with IκB-α (Ser32) (New England Biolabs, Hitchin, UK), biotinylated peptide substrate (0.375 μM), and 40 μM ATP in assay buffer (40 mM Tris-HCl (pH 7.5), 20 mM MgCl2, EDTA 1 mM, DTT 2 mM, and BSA 0.01 mg/mL) in a V-well 96-well plate in the presence and absence of test compound. The assay plate was incubated for 60 min at 30 °C, after which the kinase reaction was quenched by the addition of 50 mM EDTA, pH 8. The resulting mixture was transferred to a streptavidin-coated 96-well plate (PerkinElmer, Beaconsfield, UK) and incubated for 1 h at 30 °C to immobilize the substrate peptide. After three washes with wash buffer (0.01 M phosphate buffered saline (PBS), 0.05% Tween-20, pH 7.4), a primary antibody against the phosphorylated substrate (phospho-IκB-α) (Ser32/36) (5A5) mouse mAb (New England Biolabs, Hitchin, UK) (1:1000 dilution with 1% bovine serum albumin (BSA) in wash buffer) was added and incubated at 37 °C for 2 h.
After a further three washes, a secondary europiated antibody (Eu–N1 labeled antimouse IgG, (PerkinElmer, Beaconsfield, UK) diluted 1:500 in 1% BSA/wash buffer) was added and incubated at 30 °C for 30 min. After a further five washes, DELFIA enhancement solution (PerkinElmer, Beaconsfield UK) was added and allowed to incubate for 10 min at room temperature, protected from light, to facilitate the chemifluorescent detection. The relative fluorescence units (RFU) signal were measured on a Wallac Victor 1420 multilabel counter (PerkinElmer, Beaconsfield, UK) in time-resolved fluorescence mode. The counter was set at an excitation wavelength of 340 nm with a 400 μs delay before detecting emitted light at 615 nm. The apparent Ki of the phosphorylated substrate was calculated for each compound using the Cheng–Prusoff equation.

The mark [1] stands for this setting: apparent Ki (Cheng–Prusoff), 40 μM ATP, three independent experiments, read-out: IKKβ (Ki ± SEM μM).

Turning to “2-Amino-4-(3-hydroxypropylamino)-7H-pyrrolo[2,3-d]pyrimidine-5-carbonitrile [Compound 23]”, the Ki is 12.1 ± 6.3 µM on IKKα and greater than 30 µM at IKKβ (setting [1]).
For “2-Amino-4-(cyclohexylmethylamino)-7H-pyrrolo[2,3-d]pyrimidine-5-carbonitrile [Compound 10]”, in that order: greater than 30 µM and greater than 30 µM.
For “4-((2-Amino-5-cyano-7H-pyrrolo[2,3-d]pyrimidin-4-yl)amino)benzoic acid [Compound 12]”, in that order: greater than 30 µM and greater than 30 µM.
With `N#Cc1c[nH]c2nc(N)nc(N[C@@H]3CC[C@@H](O)[C@H]3O)c12` (relative stereo) [Compound 30, 2-Amino-4-((1RS,2SR,3RS)-2,3-dihydroxycyclopentylamino)-7H-pyrrolo[2,3-d]pyrimidine-5-carbonitrile], the “IKKα inhibitory activity” value on IKKα was “active and selective”.
On the same count and under the same terms, as for `N#Cc1c[nH]c2nc(N)nc(N3CCC(O)C3)c12` (stereo in doubt) [Compound 25, (R)-2-Amino-4-(3-hydroxypyrrolidin-1-yl)-7H-pyrrolo[2,3-d]pyrimidine-5-carbonitrile], the entry is “active and selective against IKKα”.
In the case of `N#Cc1c[nH]c2nc(N)nc(NC3CCCCC3)c12` [Compound 9, 2-Amino-4-(cyclohexylamino)-7H-pyrrolo[2,3-d]pyrimidine-5-carbonitrile], the “increase in potency against IKKα” value at IKKα (from methylamine analogue 7 to cyclohexylamine derivative 9) is 5 fold.
Consider `N#Cc1c[nH]c2nc(N)nc(NCc3ccccc3)c12` [Compound 14, 2-Amino-4-(benzylamino)-7H-pyrrolo[2,3-d]pyrimidine-5-carbonitrile], for which, at IKKβ (supplementary CSV, read-out: IKKbeta Ki (?M)), the Ki amounted to 19 µM.
As for `N#Cc1c[nH]c2nc(N)nc(N3CCCCC3)c12` [Compound 17, 2-Amino-4-(piperidin-1-yl)-7H-pyrrolo[2,3-d]pyrimidine-5-carbonitrile], on IKKα, the “IKKα inhibitory activity” value was “active”.
Same read-out and setting: as for `N#Cc1c[nH]c2nc(N)nc(N3CCC(S(N)(=O)=O)CC3)c12` [Compound 18, 1-(2-Amino-5-cyano-7H-pyrrolo[2,3-d]pyrimidin-4-yl)piperidine-4-sulfonamide], the entry is “active”; as for `N#Cc1c[nH]c2nc(N)nc(N3CC[C@@H](O)C3)c12` [Compound 24, (R)-2-Amino-4-(3-hydroxypyrrolidin-1-yl)-7H-pyrrolo[2,3-d]pyrimidine-5-carbonitrile], “inactive”; as for `N#Cc1c[nH]c2nc(N)nc(N[C@H]3CC[C@H](O)CC3)c12` [Compound 28, 2-Amino-4-((1R,4R)-4-hydroxycyclohexylamino)-7H-pyrrolo[2,3-d]pyrimidine-5-carbonitrile], “active and selective against IKKα”.
On to `N#Cc1c[nH]c2nc(N)nc(N(CCO)C3CCCCC3)c12` [Compound 29, 2-Amino-4-(cyclohexyl(2-hydroxyethyl)amino)-7H-pyrrolo[2,3-d]pyrimidine-5-carbonitrile], for which the “IKKα inhibitory activity” value on IKKα was “inactive”.
Turning to `N#Cc1c[nH]c2nc(N)nc(-c3cccc(C(N)=O)c3)c12` [Compound 55, 3-(2-Amino-5-cyano-7H-pyrrolo[2,3-d]pyrimdin-4-yl)benzamide], on IKKα, the “IKKα inhibitory activity” value was “inactive”. For the same molecule, the “IKKβ inhibitory activity” value at IKKβ (SAR discussion) is “inactive”.
Take `Nc1nc(Cl)c2cc[nH]c2n1` [Compound 63]: at IKKα, the “IKKα inhibitory activity” value is “inactive”.
Consider `Nc1nc(-c2ccc(S(N)(=O)=O)cc2)c2cc[nH]c2n1` [Compound 64, 4-(2-Amino-7H-pyrrol[2,3-d]pyrimidin-4-yl)benzenesulfonamide], for which the “reduction of activity against IKKα” value at IKKα (relative to 48 (absence of 5-cyano group)) is “more than 30 fold”.
In the case of `Nc1nc(NC2CCCCC2)c2c(C(F)(F)F)c[nH]c2n1` [Compound 70, N^4-Cyclohexyl-5-(trifluoromethyl)-7H-pyrrolo[2,3-d]pyrimidine-2,4-diamine], the “IKKα inhibitory activity” value at IKKα is recorded as “attenuated all IKKα inhibitory activity”.
The same measure, in the same setting: next, `NC(=O)c1c[nH]c2nc(N)nc(N[C@H]3CC[C@H](O)CC3)c12` [Compound 71, 2-Amino-4-((1R,4R)-4-hydroxycyclohexylamino)-7H-pyrrolo[2,3-d]pyrimidine-5-carboxamide]: “attenuated all IKKα inhibitory activity”.
